Read-outs that look alike come from different tables or passages of the source. Bounds are passed on as bounds.

In one data set the test system is KB. Description: RT-CES cell proliferation inhibition, KB. Particulars: Homo sapiens. Type of data set: cell-based. The text has this: (§1) The biological activity of compounds disclosed herein was monitored and profiled using the Real-Time Cell Electronic Sensing (RT-CES®) system from ACEA Biosciences, Inc. The RT-CES system utilizes cell-substrate impedance technology to monitor cellular behavior inside tissue culture wells in a microtiter plate format. The technology features in the integration of molecular and cell biology with microelectronics and is based on the electronic detection of biological assay process. The details of this cell electronic sensing technology and associated devices, systems and methods of use as described in U.S. provisional application No. 60/379,749, filed on Jul. […]
(§2) For measurement of cell-substrate or cell-electrode impedance using RT-CES technology, microelectrodes having appropriate geometries are fabricated onto the bottom surfaces of microtiter plate or similar device, facing into the wells. […] When there are changes to the biological status of the cells analogue electronic readout signals are measured automatically and in real time, and are converted to digital signals for processing and for analysis. In a RT-CES system, a cell index (arbitrary representation of change in impedance) is automatically derived and provided based on measured electrode impedance values. […]
(§3) To quantify cell status based on the measured cell-electrode impedance, a parameter termed Cell Index is derived. […]

The subject of data set [1] is murine Lewis lung cancer (LLC). Description: Anti-tumor activity against LLC mice model. The data set is classed as in vivo, C57 BL/6 mice. Particulars: 40 mg/kg; for Tumor Weight / Inhibition Rate (%): LLC, 12 days; for Tumor Weight: qod (Table 14); for Inhibition Rate (%): qod (Table 14; text qd); for Body Weight (g) Start: mouse, in vivo. The method, then:
ACEA100160 (2-(4-ethoxyphenyl)amino-4-(6-methylimidazo[1,2-a]pyrimidin-3-yl)thiazole) and ACEA 100162 (2-(4-ethoxyphenyl)amino-4-(6-methylimidazo[2,1-b]thiazol-5-yl)thiazole) are prepared at concentration of 8 mg/ml in solution containing 20% HP-beta-CD dextrose (D5W). The solvent HP-beta-CD solution is used as a vehicle negative control.
LLC: murine Lewis lung cancer cell line.
LLC cells were cultured in DMEM medium with 10% FBS to obtain the necessary cell number for injection subcutaneously (10^7 cells).
Under a sterilized condition, sacrifice the C57 BL/6 murine LLC bearing mice, separate tumor and put it into NS. Chop the tumor into fine pieces with sterilized scissors and then homogenate into cell suspension. Inject 0.2 ml cell suspension (10^6 cells) subcutaneously into the left flank on C57 BL/6 mice. On the first treatment day before iv or ip, implanted animals are randomly divided into seven groups as following. The drugs were administrated in the schedule of Table 13 respectively. The solvent HP-beta-CD solution is used as a vehicle negative control. Observe clinical signs at least daily.
Tumor weight was recorded. The tumor inhibitory rate was calculated as follows: inhibitory rate=1-Wt/W0, where Wt is the average weight of each drug treatment group and W0 is the average weight of negative control group. Results are given as mean±SD values from n animals. Comparisons between groups were made with Student's two-tailed t test and a P<0.05 was considered significant.

In a further data set the test system is HepG2. Put plainly: RT-CES cell proliferation inhibition, HepG2. The data set is classed as cell-based. The following applies: Homo sapiens.
Excerpt: as §1, §2, §3

The next data set has as its system H460. Put plainly: RT-CES cell proliferation inhibition, H460. The data set is classed as cell-based. The following applies: Homo sapiens, NCI-H460.
Excerpt: as §1, §2, §3

The subject of a further data set is KB200. Description: RT-CES cell proliferation inhibition, KB200. Type of data set: cell-based. The following applies: Homo sapiens.
Excerpt: as §1, §2, §3

For another data set, the system named is MCF7. Description: RT-CES cell proliferation inhibition, MCF7. The data set is classed as cell-based. The following applies: Homo sapiens.
Excerpt: as §1, §2, §3

The subject of a further data set is HT1080. Put plainly: RT-CES cell proliferation inhibition, HT1080. Type of data set: cell-based. Particulars: Homo sapiens, HT-1080.
Excerpt: as §1, §2, §3

A further data set concerns Jurkat. Description: RT-CES cell proliferation inhibition, Jurkat. The following applies: Homo sapiens, 24 hrs. Type of data set: cell-based.
Excerpt: as §1, §2, §3

A further data set has as its system 3T3. Put plainly: RT-CES cell proliferation inhibition, 3T3. The data set is classed as cell-based. The following applies: Mus musculus, NIH3T3.
Excerpt: as §1, §2, §3

The next data set concerns PC3. Description: RT-CES cell proliferation inhibition, PC3. Particulars: Homo sapiens, PC-3. Type of data set: cell-based.
Excerpt: as §1, §2, §3

In general, IC50 refers to the concentration at which inhibition is half-maximal. Turning to `Br.CCOc1ccc(Nc2nc(-c3c(C)nc4sccn34)cs2)cc1` [Compound 27, 2-(4-ethoxyphenyl)amino-4-(6-methylimidazo[2,1-b]thiazol-5-yl)thiazole], the IC50 in the data set on KB (24 hrs, read-out: IC50 (24 hr)) was 22.2 nM; in the data set on KB (48 hrs, read-out: IC50 (48 hr)) it was 18.1 nM; with HepG2 (HepG2, 24 hrs, read-out: IC50 (24 hr)), over 200 nM; in the data set on HepG2 (HepG2, 48 hrs, read-out: IC50 (48 hr)), over 200 nM; in the data set with H460 (H460, 24 hrs after compound treatment, read-out: IC50 (24 hr)) it was 12.3 nM; with H460 (H460, 48 hrs after compound treatment, read-out: IC50 (48 hr)), 16 nM. Besides, the IC50 in the data set on KB200 (KB200, 24 hrs, read-out: IC50 (24 hr)) is 12.1 nM; in the data set on KB200 (KB200, 48 hrs, read-out: IC50 (48 hr)), 4.28 nM; in the data set on MCF7 (MCF7, 24 hrs, read-out: IC50 (24 hr)), over 200 nM; with MCF7 (MCF7, 48 hrs, read-out: IC50 (48 hr)), over 200 nM; in the data set with HT1080 (HT1080, 24 hrs, read-out: IC50 (24 hr)), 2.39 nM; in the data set on HT1080 (HT1080, 48 hrs, read-out: IC50 (48 hr)) it was 2.69 nM. Further, the IC50 was determined as 45.4 nM with Jurkat; 20.6 nM in the data set on 3T3 (3T3, 24 hrs, read-out: IC50 (24 hr)); 51.5 nM in the data set with 3T3 (3T3, 48 hrs, read-out: IC50 (48 hr)); 10.9 nM in the data set with PC3 (PC3, 24 hrs, read-out: IC50 (24 hr)); 5.37 nM with PC3 (PC3, 48 hrs, read-out: IC50 (48 hr)). Besides, the figures for the “Tumor Weight” value in data set [1] (IP) and in data set [1] (IV) were 0.70 ± 0.46 g and 0.91 ± 0.18 g, respectively. The “Inhibition Rate (%)” value is 39.2% in data set [1] (IP, listed as 162, 40 mg/kg); 39.15% in [1] (IP, listed as ACEA100162, 40 mg/kg); 25.5% in data set [1] (IV). Besides, the entries for the “Body Weight (g) Start” value in data set [1] (ip) and in [1] (iv) were 19.0 ± 0.8 g and 18.5 ± 1.3 g, respectively.

The record behind these values is patent publication US8252822B2, “Heterocyclic compounds and uses as anticancer agents” (Acea Biosciences, Inc., priority 2007, dated 2012).
